Experimental data as given in patent US10596151B2, “Methods and pharmaceutical compositions for reducing arterial stiffness with a combination of a therapeutic agent blocking the angiotensin receptor and a therapeutic agent inhibiting the NEP enzyme” (Novartis AG, priority 2015, dated 2020).
“And” between values parts separate entries of the source, which are not always exact repeats. Equal values may be shown once. Marks after values point to notes of the source that are not given here.

Assays:
[1] = tested on: elderly patients (≥60 years) with essential hypertension; assay: […] study: central aortic pressures (CASP, CPP/CAPP, central DBP, central MAP) by SphygmoCor X-CEL; assay type: in vivo, human; conditions: for LSM change from baseline (SE) in mean CPP at Week 12 endpoint / LSM change from baseline (SE) in mean CASP at Week 12 endpoint: monotherapy; for LSM change from baseline (SE) in mean CASP at Week 12 endpoint: olmesartan 40 mg/day; for LSM change from baseline (SE) in mean CASP at Week 52 endpoint / LSM change from baseline (SE) in mean CPP at Week 52 endpoint: add-on amlodipine/HCTZ allowed; for Change from baseline to 12 weeks, mscDBP / Change from baseline to 52 weeks, mscDBP: mean sitting central diastolic BP; for Change from baseline to 12 weeks, mscMAP / Change from baseline to 52 weeks, mscMAP: mean sitting central mean arterial pressure, mean
Experimental: The term CAPP refers to central aortic PP. In the context of the present invention CAPP is measured with the SphygmoCor X-CEL System (AtCor Medical, Sydney, Australia) to non-invasively derive the ascending aortic pressure waveform from the brachial waveform using a validated generalised transfer function (GTF). A properly sized BP cuff is linked to a computer and software and the CASP, CAPP, augmentation pressure, and Alx are determined from the analysis of waveform by the system software. […]
The primary and secondary endpoints are changes from baseline in central aortic systolic pressure (CASP) and central aortic PP (CAPP) at week 12, respectively. Other secondary endpoints are the changes in CASP and CAPP at week 52. […] The primary variable will be analysed using a two-way analysis of covariance.
The SphygmoCor X-CEL System (AtCor Medical, Sydney, Australia) is being used to non-invasively derive the ascending aortic pressure waveform from the brachial waveform using a validated generalised transfer function (GTF).22 A properly sized BP cuff is linked to a computer and software and the CASP, CAPP, augmentation pressure, and Alx are determined from the analysis of waveform by the system software.
A sample size of 183 completers per group is targeted, which is calculated based on the primary efficacy variable, change from baseline in mean CASP at 12 weeks, assuming a standard deviation of 19 mm Hg. […] Assuming a 15% dropout rate, the total targeted sample size to be randomised is 432 patients (216 per group). The primary variable at the Week 12 endpoint will be analysed using a two-way analysis of covariance (ANCOVA), with treatment and region as factors and the baseline as a covariate. Mean CAPP at the Week 12 endpoint will be analysed using the same type of ANCOVA model used for the primary efficacy analysis. A two-sided significance at 0.05 level will be used for this analysis and a 95% confidence interval for the treatment difference will be provided.

[2] = tested on: elderly patients (≥60 years) with essential hypertension; assay: […] study: carotid-femoral aortic pulse wave velocity (SphygmoCor X-CEL); assay type: in vivo, human; conditions: for Change from baseline to 12 weeks, PWV / Change from baseline to 52 weeks, PWV: pulse wave velocity; for Change from baseline to 12 weeks, PWV: Week 12 endpoint, n = 192 LCZ696, n = 196 olmesartan; for Change from baseline to 52 weeks, PWV: week 52 endpoint, n = 199 both treatments
Experimental: In the context of the present invention PWV is measured as aortic PWV=aPWV. One system to measure aPWV is the SphygmoCor X-CEL system which measures the carotid-femoral aPWV, as the speed of the arterial pressure waveform as it travels through the descending aorta to the femoral artery, which is detected from simultaneously measured carotid and femoral arterial pulses. The carotid pulse is detected by applanation tonometry using a high-fidelity pressure transducer (Millar Instruments, Houston, Tex.), while the femoral pulse is detected using a partially inflated blood pressure cuff wrapped around the upper thigh. The distance travelled by the pulse wave is captured by making physical measurements on the body surface according to the manufacturer's recommendations. […] [Butlin M, Qasem A, Avolio A P. Estimation of central aortic pressure waveform features derived from the brachial cuff volume displacement waveform. Conf Proc IEEE Eng Med Biol Soc 2012; 2012:2591-4]
(§1) The study enrolled patient from 5 Dec. 2012 to 8 Apr. 2015.
The SphygmoCor X-CEL system also measures the carotid-femoral aPWV, as the speed of the arterial pressure waveform as it travels through the descending aorta to the femoral artery, which is detected from simultaneously measured carotid and femoral arterial pulses. The carotid pulse is detected by applanation tonometry using a high-fidelity pressure transducer (Millar Instruments, Houston, Tex.), while the femoral pulse is detected using a partially inflated blood pressure cuff wrapped around the upper thigh. The distance traveled by the pulse wave is captured by making physical measurements on the body surface according to the manufacturer's recommendations.

[3] = tested on: elderly patients (≥60 years) with essential hypertension; assay: […] study: mean sitting (brachial) blood pressure and pulse pressure; assay type: in vivo, human; conditions: for Change from baseline to 12 weeks, msDBP / Change from baseline to 52 weeks, msDBP: mean sitting diastolic BP; for Change from baseline to 12 weeks, msDBP / Change from baseline to 52 weeks, msDBP / Change from baseline to 12 weeks, msPP / Change from baseline to 52 weeks, msPP / Change from baseline to 12 weeks, msSBP / Change from baseline to 52 weeks, msSBP: mean; for Change from baseline to 12 weeks, msMAP / Change from baseline to 52 weeks, msMAP: mean sitting mean arterial pressure; for Change from baseline to 12 weeks, msPP / Change from baseline to 52 weeks, msPP: mean sitting pulse pressure; for Change from baseline to 12 weeks, msSBP / Change from baseline to 52 weeks, msSBP: mean sitting systolic BP
Description: as §1
Superiority testing is also planned for the key secondary efficacy assessment, i.e. the reduction in mean central aortic PP (CAPP) after 12 weeks of treatment, and other secondary efficacy assessments such as mean CASP and CAPP after 52 weeks of treatment. Mean aPWV, msSBP, msDBP, msPP, mean ambulatory (ma) BP, maPP, and MAP will also be measured after 12 and 52 weeks of treatment.

[4] = tested on: elderly patients (≥60 years) with essential hypertension; assay: PARAMETER study: safety and tolerability assessments
Description: The inclusion criteria in the study was designed to enroll patients which met the profile of elderly patients with systolic hypertension and a wide pulse pressure, a characteristic reflective of large artery (aortic) stiffness. […] The study enrolled patient from 5 Dec. 2012 to 8 Apr. 2015.
This was a 52-week study, involving 50 centers from 12 countries (across Europe, South America, Asia and the United States). […] After 12 weeks, patients with uncontrolled BP (msSBP>140 mmHg and/or mean sitting diastolic blood pressure [msDBP]>90 mmHg) were allowed the use of add-on antihypertensives (amlodipine [2.5-5.0 mg] and then hydrochlorothiazide [6.25-25.0 mg]) as needed, at an interval of 4 weeks up to Week 24.
Safety and tolerability assessments include regular monitoring and recording of all adverse events (AEs) and concomitant medications or significant non-drug therapies. Evaluations of routine blood chemistries, blood counts with white cell differential and urine analyses, physical examinations, electrocardiograms (ECGs), and monitoring of vital signs will be performed at regular intervals.

[5] = Week 12 endpoint, FAS, LCZ696 400 mg/day
[6] = Week 52 endpoint (LOCF), FAS, listed as olmesartan
[7] = LCZ696 regimen vs olmesartan regimen, 12 weeks
[8] = LCZ696 regimen vs olmesartan regimen, 52 weeks

| SMILES | LSM change from baseline (SE) in mean CPP at Week 12 endpoint ([1]; Week 12 endpoint, FAS) | LSM change from baseline (SE) in mean CASP at Week 12 endpoint [1, 5] | LSM change from baseline (SE) in mean CASP at Week 52 endpoint ([1]; Week 52 endpoint (LOCF), FAS) | LSM change from baseline (SE) in mean CPP at Week 52 endpoint ([1]; Week 52 endpoint (LOCF), FAS) | Change from baseline to 12 weeks, mscDBP ([1]; 12 weeks) [mmHg] | Change from baseline to 52 weeks, mscDBP ([1]; 52 weeks) [mmHg] | Change from baseline to 12 weeks, mscMAP ([1]; 12 weeks) [mmHg] | Change from baseline to 52 weeks, mscMAP ([1]; 52 weeks) [mmHg] | Change from baseline to 12 weeks, PWV [2] | Change from baseline to 52 weeks, PWV [2] | Change from baseline to 12 weeks, msDBP ([3]; 12 weeks) [mmHg] | Change from baseline to 52 weeks, msDBP ([3]; 52 weeks) [mmHg] | Change from baseline to 12 weeks, msMAP ([3]; 12 weeks) [mmHg] | Change from baseline to 52 weeks, msMAP ([3]; 52 weeks) [mmHg] | Change from baseline to 12 weeks, msPP ([3]; 12 weeks) [mmHg] | Change from baseline to 52 weeks, msPP ([3]; 52 weeks) [mmHg] | Change from baseline to 12 weeks, msSBP ([3]; 12 weeks) [mmHg] | Change from baseline to 52 weeks, msSBP ([3]; 52 weeks) [mmHg] | also measured |
| --- | --- | --- | --- | --- | --- | --- | --- | --- | --- | --- | --- | --- | --- | --- | --- | --- | --- | --- | --- |
| CCCc1nc(C(C)(C)O)c(C(=O)O)n1Cc1ccc(-c2ccccc2-c2nnn[nH]2)cc1 [Olmesartan, reference compound] | −3.96 (0.69) mmHg | −8.90 (1.01) mmHg | −14.70 (0.96) mmHg | −6.65 (0.69) mmHg | −5.0 | −8.1 | −6.7 | −9.1 | −0.6 | −0.8 | −5.2 | −8.5 | −8.6 | −12.4 | −4.5 | −7.6 | −9.7 | −16.0 | LSM change from baseline (SE) in mean CASP at Week 12 endpoint ([1]; Week 12 endpoint, FAS, LCZ696 400 mg/day, listed as olmesartan): −8.90 mmHg; LSM change from baseline (SE) in mean CPP at Week 12 endpoint ([1]; Week 12 endpoint, FAS, listed as olmesartan): −3.96 mmHg; LSM change from baseline (SE) in mean CASP at Week 52 endpoint [1, 6]: −14.70 mmHg; LSM change from baseline (SE) in mean CPP at Week 52 endpoint [1, 6]: −6.65 mmHg; percentage of patients who discontinued the study ([4]; human, in vivo, 52 weeks): 18.7%; percentage of patients who discontinued the study due to an AE ([4]; human, in vivo, 52 weeks): 5.3%; percentage of patients with AEs ([4]; human, in vivo, 52 weeks): 53.8%; percentage of patients with SAEs ([4]; human, in vivo, 52 weeks): 5.8% |
| CCCCC(=O)N(Cc1ccc(-c2ccccc2-c2nn[n-]n2)cc1)C(C(=O)[O-])C(C)C.CCCCC(=O)N(Cc1ccc(-c2ccccc2-c2nn[n-]n2)cc1)C(C(=O)[O-])C(C)C.CCOC(=O)C(C)CC(Cc1ccc(-c2ccccc2)cc1)NC(=O)CCC(=O)[O-].CCOC(=O)C(C)CC(Cc1ccc(-c2ccccc2)cc1)NC(=O)CCC(=O)[O-].O.O.O.O.O.[Na+].[Na+].[Na+].[Na+].[Na+].[Na+] [LCZ696, trisodium [3-((1S,3R)-1-biphenyl-4-ylmethyl-3-ethoxycarbonyl-1-butylcarbamoyl) propionate-(S)-3′-methyl-2′-(pentanoyl{2″-(tetrazol-5-ylate)biphenyl-4′-ylmethyl}amino)butyrate]hemipentahydrate] | −6.41 mmHg and −6.41 (0.69) mmHg | −12.57 mmHg and −12.57 (1.01) mmHg | −16.18 mmHg and −16.18 (0.96) mmHg | −7.16 mmHg and −7.16 (0.69) mmHg | −6.1 | −8.8 | −8.0 | −9.6 | −0.7 | −0.8 | −5.3 | −8.1 | −12.2 | −13.9 | −8.0 | −9.1 | −13.3 | −17.2 | lowering of CASP and CPP vs olmesartan 40 mg/day ([1]; LCZ696 400 mg/day, after 12 weeks of monotherapy): to a greater extent than olmesartan; Between-treatment difference, mscDBP, 12 weeks [1, 7]: −1.1 (0.90) mmHg; Between-treatment difference, mscDBP, 52 weeks [1, 8]: −0.7 (0.86) mmHg; LSM difference in change from baseline (SE), mean CPP, LCZ696 vs Olmesartan ([1]; Week 12 endpoint, FAS, ANCOVA, p=0.012): −2.45 mmHg and −2.45 (0.96) mmHg; LSM difference in change from baseline (SE), mean CASP, LCZ696 vs Olmesartan ([1]; Week 52 endpoint (LOCF), FAS, p=0.271): −1.49 (1.35) mmHg; LSM difference in change from baseline (SE), mean CPP, LCZ696 vs Olmesartan ([1]; Week 52 endpoint (LOCF), FAS, p=0.598): −0.51 (0.97) mmHg; Between-treatment difference, PWV, 12 weeks [2, 7]: −0.1 (0.17)*; Between-treatment difference, PWV, 52 weeks [2, 8]: −0.1 (0.18); reduction of PWV in subgroup of patients with high baseline PWV ([2]; ad-hoc analysis, vs olmesartan regimen, both Week 12 and 52): tended to reduce PWV to a greater extent than olmesartan regimen; difference in carotid-femoral PWV between the two regimens ([2]; both Week 12 and 52, LCZ696 vs olmesartan regimen): no significant difference; Between-treatment difference, msMAP, 12 weeks ([3]; LCZ696 regimen vs olmesartan regimen, 12 weeks, P < 0.001): −3.6 (0.95)* mmHg; Between-treatment difference, msMAP, 52 weeks [3, 8]: −1.5 (0.89) mmHg; percentage of patients who discontinued the study ([4]; 52-week study): 19.7%; percentage of patients who discontinued the study due to an AE ([4]; 52-week study): 6.6%; percentage of patients with AEs ([4]; 52-week study): 57.6%; percentage of patients with SAEs ([4]; 52-week study): 7.0%; tolerability of the regimen ([4]; 52-week study): well tolerated |
